Laboratory results published in patent US20160138077A1, “MONITORING AND ASSESSING DEACETYLASE ENZYME ACTIVITY” (THE GENERAL HOSPITAL CORPORATION, priority 2013, published 2016).

What was measured:
HDAC3 = target: T1, HDAC3 (Homo sapiens, UniProt O15379); assay: LCMS characterization of enzymatic deacetylation by HDAC3, incl. cleavage over time (kobs, T1/2); type: biochemical; details: for % HP-1 to DHP-1: 5 μM probe, 12 hours at 37° C.
T1 construct: purchased Cayman Chemicals
Description: The enzymatic cleavage of HP-1 and HP-2 was analyzed by performing LCMS assays with HeLa nuclear extract (AnaSpec), HeLa whole cell lysate (Santa Cruz Inc.), and the following purified HDAC isoforms: 1, 2, 3, 6 and 8 (HDAC1, 3 and 8 from Cayman Chemicals and HDAC2 and 6 provided by Dr. Stephen Haggarty). Solutions containing (i) vehicle with DMSO in HDAC buffer, (ii) 5 μM probe in HDAC buffer, (iii) 5 μM probe and HDAC enzyme/HeLa nuclear extract/HeLa whole cell lysate in HDAC buffer, or (iv) 5 μM probe and HDAC enzyme/HeLa nuclear extract/HeLa whole cell lysate pre-incubated with 10 μM SAHA (Provided by Dr. Stephen Haggarty) in HDAC buffer were incubated for 12 hours at 37° C. Following incubation, a 20 μL aliquot of supernatant from each sample was analyzed by LCMS. Deacetylation of HP-1 and 2 was confirmed by detection of the (M+H)^+.ion following positive electrospray ionization. For HP-1, the (M+H)^+ ion for the corresponding aldehyde (8, DHP-1) was detected, which formed following reaction of the initial imine deacetylation product with water. For HP-2, the […]. ion for the corresponding amine (6, DHP-2) was identified. The peak area for each detected compound was measured to determine the % deacetylation of each probe. All assay samples were analyzed in triplicate. […]
The rate of cleavage of HP-1 by purified HDAC3 was analyzed by performing a LCMS assay. […] Following incubation, a 20 μL aliquot of supernatant from each sample was analyzed by LCMS at t=0, 1, 2, 4, 8, and 12 hours. […] For HP-1, the (M+H)^+ ion for the corresponding aldehyde (8, DHP-1) was detected, which formed following reaction of the initial imine deacetylation product with water. The peak area for each detected compound was measured to determine the % deacetylation of each probe. The observed rate constant was determined using Graphpad by plotting Ln(DHP-1 peak area) versus time. […] All assay samples were analyzed in triplicate. […]
LCMS characterization of HDAC enzymatic action on HP-1 and HP-2. […] Following incubation, an aliquot of supernatant from each sample was analyzed by LCMS. […]

HDAC1 = target: T2, HDAC1 (Homo sapiens, UniProt Q13547); assay: HDAC1 IC50 (Trypsin-coupled assay and Caliper endpoint assay); type: biochemical; details: competitive inhibition with a peptide substrate
T2 construct: purchased Cayman Chemicals
T2 sequence (Q13547 whole entry): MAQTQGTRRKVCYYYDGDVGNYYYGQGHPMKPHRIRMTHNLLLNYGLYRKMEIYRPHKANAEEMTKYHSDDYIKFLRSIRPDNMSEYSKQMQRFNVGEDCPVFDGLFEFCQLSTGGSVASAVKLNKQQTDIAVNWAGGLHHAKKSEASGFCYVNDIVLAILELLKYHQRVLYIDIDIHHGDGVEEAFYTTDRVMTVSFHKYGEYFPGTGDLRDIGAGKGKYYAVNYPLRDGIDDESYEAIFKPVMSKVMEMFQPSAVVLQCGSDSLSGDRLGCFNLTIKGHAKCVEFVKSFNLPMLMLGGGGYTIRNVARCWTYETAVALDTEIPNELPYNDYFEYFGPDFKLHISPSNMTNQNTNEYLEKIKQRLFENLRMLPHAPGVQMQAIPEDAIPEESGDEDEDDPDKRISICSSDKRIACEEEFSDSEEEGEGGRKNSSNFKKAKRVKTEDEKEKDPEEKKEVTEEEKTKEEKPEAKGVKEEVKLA
Description: HP-1 and HP-2 IC50 values for HDAC1 were determined using the Trypsin-coupled assay as well as the Caliper endpoint assay. HP-1 and HP-2 IC50 values for HDAC2, HDAC3, HDAC6 and HDAC8 were determined with the Caliper endpoint assay.
In vitro HDAC 1 end point enzymatic assays were performed in optimized 96-well format as previously described^3,4 with the following modifications. Reactions were performed in volume of 120 uL with 30 ng of full-length, recombinant HDAC1 (BPS Biosciences). TCEP was excluded from the assay buffer. HDAC1 was pre-incubated with varying concentrations of HP-1 or HP-2, or DMSO vehicle for 30 minutes. Fluorophore-conjugated acetyl-lysine tripeptide substrate was added at a concentration equivalent to the substrate Km, 11 uM, and the deacetylation reaction was allowed to run for 45 minutes at RT. […] Fluorescence intensity of the aminomethylcoumarin liberated by deacetylase and trypsin enzymatic activity was monitored at 460 nm using a multilabel plate reader (EnVision, Perkin-Elmer) every 5 minutes until stable, about 25 minutes. […]
IC50 measurements. HP-1 and HP-2 IC50 values for HDAC1 were determined using the Trypsin-coupled assay as well as the Caliper endpoint assay. HP-1 and HP-2 IC50 values for HDAC2, HDAC3, HDAC6 and HDAC8 were determined with the Caliper endpoint assay (full experimental details in Example 1).

T1 sequence (O15379 whole entry): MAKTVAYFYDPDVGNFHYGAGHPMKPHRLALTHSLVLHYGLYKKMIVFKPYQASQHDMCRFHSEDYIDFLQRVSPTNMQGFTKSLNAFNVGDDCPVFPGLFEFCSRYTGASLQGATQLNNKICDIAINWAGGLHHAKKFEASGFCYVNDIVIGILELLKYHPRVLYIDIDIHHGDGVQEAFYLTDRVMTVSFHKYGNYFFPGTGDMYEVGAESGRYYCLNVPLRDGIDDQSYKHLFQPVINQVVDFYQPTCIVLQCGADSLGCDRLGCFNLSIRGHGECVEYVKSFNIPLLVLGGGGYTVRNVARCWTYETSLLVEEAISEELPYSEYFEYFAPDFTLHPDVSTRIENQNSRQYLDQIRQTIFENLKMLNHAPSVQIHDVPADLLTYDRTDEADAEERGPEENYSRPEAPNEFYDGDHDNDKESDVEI
T1 sequence (Q9Y618 395-489 partner limits assumed): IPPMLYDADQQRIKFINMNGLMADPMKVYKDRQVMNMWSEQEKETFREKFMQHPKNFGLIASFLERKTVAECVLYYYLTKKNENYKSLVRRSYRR

Compound: CC(=O)NC=CCCCCNC(=O)CCCCCNc1ccc([N+](=O)[O-])c2nonc12 [HP-1]
- kobs with HDAC3 (conversion of HP-1 to DHP-1) (HDAC3; 5 μM HP-1, HDAC3, 37° C., t=0-12 hours, Ln(DHP-1 peak area) versus time): 3.2e-05 ± 6e-06 s⁻¹
- % HP-1 to DHP-1 (HDAC3; HDAC3, +SAHA (10 μM)): 0%
- % HP-1 to DHP-1 (HDAC3; HDAC3, −SAHA, maximum detected conversion): 93%
- IC50 (HDAC1; HDAC1, table does not say whether Trypsin-coupled or Caliper assay): 35.8 µM
- inhibition of HDAC1 (in words) (HDAC1): weakly inhibit
